Patent US4652566A, “Benzofuran derivatives, processes for preparing the same and antihypertensive agents containing the same” (Kaken Pharmaceutical Co., Ltd., priority 1984, dated 1987)
Counter-ions that a name gives are not always drawn. Like-named read-outs stand apart in the source and are kept apart here.

Tests used:
[1] = Antihypertensive effect and effect on heart rate in spontaneously hypertensive rat (SHR); format: in vivo; details: po, single dose
Procedure: [Antihypertensive effect and effect on a heart rate on rat suffering from a spontaneously hypertensive rat (SHR)]
A blood pressure was measured under no anesthetic condition by means of an apparatus for recording a blood pressure of a tail artery and a heart rate (Riken Kaihatsu Co., Ltd.) (PS-802) and at the same time a heart rate was also measured.
Each of test compounds was dissolved or suspended in an aqueous solution containing 5% by weight of acasia and the obtained solution or suspension was administered once orally to SHR which had been kept under a fast condition for one night. A blood pressure and a heart rate were measured before administration and after one hour, three hours, five hours and seven hours of it and the maximum value of changes were calculated by comparing the value measured before administration with the value measured after administration.
For the purpose of a comparison, the same experiment as mentioned above was carried out on both Labetalol and Diltiazem as mentioned above.
With respect to a dosage, 100 mg/kg and 10 mg/kg as to compounds obtained by Examples 2, 5, 6, 9 and 18 to 23 were respectively administered, 100 mg/kg as to compounds obtained by Examples 1, 3, 4, 7 and 10 to 17 was respectively administered.

[2] = molecular target: T1, α-adrenergic blockade (vas deferens specimen, contraction by noradrenalin) (Rattus norvegicus, UniProt P43140); test: α-Adrenergic blockade effect (contraction response by noradrenalin of vas deferens specimen, Magnus method); set-up: species or system Wister male rat
T1 construct: from tissue; host or cells: vas deferens of six-week-old male Wistar rat
T1 sequence (P43140 1-466): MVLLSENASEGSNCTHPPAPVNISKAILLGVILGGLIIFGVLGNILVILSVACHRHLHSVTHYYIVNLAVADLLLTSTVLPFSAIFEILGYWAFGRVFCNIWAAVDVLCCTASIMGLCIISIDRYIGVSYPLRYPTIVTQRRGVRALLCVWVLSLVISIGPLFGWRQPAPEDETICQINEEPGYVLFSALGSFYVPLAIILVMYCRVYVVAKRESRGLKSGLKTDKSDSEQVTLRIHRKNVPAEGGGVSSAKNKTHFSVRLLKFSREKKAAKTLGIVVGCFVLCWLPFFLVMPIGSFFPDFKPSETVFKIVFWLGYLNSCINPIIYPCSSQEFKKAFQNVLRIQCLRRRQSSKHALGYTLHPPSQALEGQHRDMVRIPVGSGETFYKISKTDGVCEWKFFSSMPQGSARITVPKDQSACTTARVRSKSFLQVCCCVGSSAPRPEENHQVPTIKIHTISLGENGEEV

[3] = molecular target: T2, calcium antagonism (thoracic aorta spiral specimen, contraction by calcium) (Cavia porcellus, UniProt O35505); test: Calcium antagonistic effect (contraction response by calcium of spiral thoracic aorta specimen, Magnus method); set-up: species or system Hartly male giunea pig; details: guinea pig thoracic aorta, antagonism of calcium contraction; for Kb: read-out: Calcium antagonistic effect, pA2 value (converted)
T2 construct: from tissue; host or cells: thoracic aorta spiral strip of male Hartley guinea pig
T2 sequence (O35505 whole entry): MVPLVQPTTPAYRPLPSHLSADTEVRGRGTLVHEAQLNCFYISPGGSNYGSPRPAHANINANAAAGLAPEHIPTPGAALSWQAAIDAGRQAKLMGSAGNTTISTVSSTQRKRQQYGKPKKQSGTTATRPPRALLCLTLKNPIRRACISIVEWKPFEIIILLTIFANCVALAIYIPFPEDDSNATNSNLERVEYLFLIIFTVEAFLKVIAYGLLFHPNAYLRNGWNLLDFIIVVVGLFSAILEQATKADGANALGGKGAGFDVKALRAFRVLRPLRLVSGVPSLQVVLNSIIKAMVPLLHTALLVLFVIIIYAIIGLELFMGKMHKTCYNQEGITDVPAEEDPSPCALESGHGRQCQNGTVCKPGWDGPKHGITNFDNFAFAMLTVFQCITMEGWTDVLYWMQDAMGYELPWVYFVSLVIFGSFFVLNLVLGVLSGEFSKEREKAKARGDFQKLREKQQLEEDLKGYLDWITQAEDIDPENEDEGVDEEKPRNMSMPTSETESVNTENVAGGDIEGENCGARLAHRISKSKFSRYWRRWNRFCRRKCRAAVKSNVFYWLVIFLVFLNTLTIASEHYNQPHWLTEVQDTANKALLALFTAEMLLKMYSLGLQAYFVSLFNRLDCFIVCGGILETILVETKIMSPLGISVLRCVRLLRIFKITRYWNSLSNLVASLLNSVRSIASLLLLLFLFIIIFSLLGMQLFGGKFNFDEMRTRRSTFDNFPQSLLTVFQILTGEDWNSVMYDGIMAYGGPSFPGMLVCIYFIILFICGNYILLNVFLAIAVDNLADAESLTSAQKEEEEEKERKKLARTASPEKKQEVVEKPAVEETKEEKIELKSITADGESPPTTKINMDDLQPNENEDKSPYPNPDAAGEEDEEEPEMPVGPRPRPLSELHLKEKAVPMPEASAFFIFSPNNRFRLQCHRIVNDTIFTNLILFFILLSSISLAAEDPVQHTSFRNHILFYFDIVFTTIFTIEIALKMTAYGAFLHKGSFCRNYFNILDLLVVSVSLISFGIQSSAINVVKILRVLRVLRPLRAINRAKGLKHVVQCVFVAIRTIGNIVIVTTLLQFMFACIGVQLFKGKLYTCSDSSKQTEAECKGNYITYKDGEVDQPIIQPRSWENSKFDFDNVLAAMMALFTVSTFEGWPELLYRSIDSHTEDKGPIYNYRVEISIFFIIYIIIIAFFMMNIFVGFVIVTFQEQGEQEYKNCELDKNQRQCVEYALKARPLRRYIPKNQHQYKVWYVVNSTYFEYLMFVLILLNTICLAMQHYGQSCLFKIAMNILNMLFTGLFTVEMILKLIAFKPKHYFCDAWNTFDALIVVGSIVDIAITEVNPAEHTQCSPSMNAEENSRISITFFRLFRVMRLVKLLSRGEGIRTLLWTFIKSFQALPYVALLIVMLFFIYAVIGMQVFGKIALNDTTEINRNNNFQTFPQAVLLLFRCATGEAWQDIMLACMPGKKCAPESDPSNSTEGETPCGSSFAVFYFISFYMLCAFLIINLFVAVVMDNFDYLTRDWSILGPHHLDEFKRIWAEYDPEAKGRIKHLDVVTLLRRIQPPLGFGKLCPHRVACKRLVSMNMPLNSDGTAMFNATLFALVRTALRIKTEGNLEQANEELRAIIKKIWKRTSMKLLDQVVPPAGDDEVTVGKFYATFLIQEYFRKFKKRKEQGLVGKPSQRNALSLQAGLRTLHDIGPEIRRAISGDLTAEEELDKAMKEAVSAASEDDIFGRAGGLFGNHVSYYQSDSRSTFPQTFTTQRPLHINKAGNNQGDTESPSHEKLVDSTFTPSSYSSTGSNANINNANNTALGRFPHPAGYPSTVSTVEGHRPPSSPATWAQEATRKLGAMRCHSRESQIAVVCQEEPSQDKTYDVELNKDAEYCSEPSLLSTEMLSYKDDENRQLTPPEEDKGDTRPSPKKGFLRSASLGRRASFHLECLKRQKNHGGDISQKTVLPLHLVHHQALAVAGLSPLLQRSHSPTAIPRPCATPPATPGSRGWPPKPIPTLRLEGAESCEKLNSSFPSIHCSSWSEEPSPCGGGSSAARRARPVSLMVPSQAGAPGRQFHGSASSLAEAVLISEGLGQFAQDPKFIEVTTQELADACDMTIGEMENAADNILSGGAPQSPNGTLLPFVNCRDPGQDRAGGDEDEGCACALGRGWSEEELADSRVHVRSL
Procedure: [Calcium antagonistic effect]
Using a spiral blood vessel specimen taken from a thoracic aorta of Hartly male giunea pig weighed 400 to 600 g, a contraction response by calcium was measured as a dose-response curve according to Magnus method and the antagonistic activity for each test compound was indicated as above-mentioned pA2 value.

[4] = Accute toxicity test (LD50 value); details: mouse, in vivo; mice; single oral administration; deaths by seventh day; Litchfield-Wilcoxon
Procedure: [Accute toxicity test (LD50 value)]
The experiment was carried out using six weeks old ddy male mice.
Each of test compounds was suspended in an aqueous solution containing 5% by weight of acasia and the suspension was administered compulsorily once orally with a gastric probe. Within six hours after the start of the administration, the behavior of tested mice were observed consecutively. Thereafter, the observation was made at an interval of twenty four hours during 7 days and an accumulative number of deaths seventh day since the start of the administration was measured.
LD50 value was calculated according to the Litchfield-Wilcoxon method.

[5] = 10 mg/kg, maximum over 1, 3, 5, 7 hours (Table 2)
[6] = 100 mg/kg, maximum over 1, 3, 5, 7 hours (Table 2)
[7] = 100 mg/kg, maximum over 1, 3, 5, 7 hours (Table 3)
[8] = rat vas deferens, antagonism of noradrenalin contraction, pA2 = negative logarithm of antagonist dose shifting agonist curve two times, read-out: α-Adrenergic blockade effect, pA2 value (converted)
[9] = rat vas deferens, antagonism of noradrenalin contraction, pA2 = negative logarithm of antagonist dose shifting agonist curve two times

For `COc1ccc([C@@H]2Sc3ccccc3N(CCN(C)C)C(=O)[C@@H]2OC(C)=O)cc1` [Diltiazem, reference compound], the “Maximum value of change, heart rate” value [1, 5] was -140.0 ± 27.5 beats/min, the “Maximum value of change, systolic pressure” value [1, 5] was -12.8 ± 5.7 mmHg and the “Maximum value of change, heart rate” value [1, 6] was -136.7 ± 34.2 beats/min. The “Maximum value of change, systolic pressure” value [1, 6] was -79.9 ± 11.6 mmHg, the “Maximum value of change, heart rate” value [1, 7] was -136.7 ± 34.2 beats/min and the “Maximum value of change, systolic pressure” value [1, 7] was -79.9 ± 11.6 mmHg.
In the case of `CC(=O)c1cc2cccc(OCC(O)CN3CCN(c4ccccc4)CC3)c2o1` (stereo not shown) [Ex. 1 (HCl salt), 2-acetyl-7-[3-(4-phenylpiperazinyl)-2-hydroxypropoxy]benzofuran], the Kb [2, 8] was 209 nM, the Kb [3] was 2950 nM and the “Maximum value of change, heart rate” value [1, 7] was -105.8 ± 3.4 beats/min. The “Maximum value of change, systolic pressure” value [1, 7] was -74.6 ± 5.6 mmHg and the LD50 at 168 h [4] was greater than 1000 mg/kg.
In the case of `COc1ccccc1N1CCN(CC(O)COc2cccc3cc(C(C)=O)oc23)CC1` (stereo not shown) [Ex. 2, 2-acetyl-7-{2-hydroxy-3-[4-(2-methoxyphenyl)piperazinyl]-propoxy}benzofuran], the “Maximum value of change, heart rate” value [1, 5] was -121.7 ± 15 beats/min, the “Maximum value of change, systolic pressure” value [1, 5] was -54.8 ± 11.2 mmHg and the “Maximum value of change, heart rate” value [1, 6] was -155.6 ± 15.5 beats/min. The “Maximum value of change, systolic pressure” value [1, 6] was -72.4 ± 8.9 mmHg and the LD50 at 168 h [4] was greater than 1500 mg/kg.
With `COc1ccc(N2CCN(CC(O)COc3cccc4cc(C(C)=O)oc34)CC2)cc1` (stereo not shown) [Ex. 3 (HCl salt), 2-acetyl-7-{2-hydroxy-3-[4-(4-methoxyphenyl)piperazinyl]-propoxy}benzofuran] the Kb [2, 8] was 457 nM, the Kb [3] was 631 nM and the “Maximum value of change, heart rate” value [1, 7] was -200.0 ± 28.4 beats/min. For the same compound, the “Maximum value of change, systolic pressure” value [1, 7] was -22.9 ± 1.7 mmHg and the LD50 at 168 h [4] was 700 mg/kg.
With `COc1ccccc1N1CCN(CC(O)COc2ccc3cc(C(C)=O)oc3c2)CC1` (stereo not shown) [Ex. 4 (HCl salt), 2-acetyl-6-{2-hydroxy-3-[4-(2-methoxyphenyl)piperazinyl]-propoxy}benzofuran] the Kb [2, 8] was 22.4 nM, the Kb [3] was 525 nM and the “Maximum value of change, heart rate” value [1, 7] was -172.5 ± 23.9 beats/min. For the same compound, the “Maximum value of change, systolic pressure” value [1, 7] was -114.2 ± 1.7 mmHg and the LD50 at 168 h [4] was greater than 1000 mg/kg.
With `COc1ccccc1N1CCN(CC(O)COc2ccc3oc(C(C)=O)cc3c2)CC1` (stereo not shown) [Ex. 5] the “Maximum value of change, heart rate” value [1, 5] was -49.2 ± 28.0 beats/min, the “Maximum value of change, systolic pressure” value [1, 5] was -56.3 ± 6.0 mmHg and the “Maximum value of change, heart rate” value [1, 6] was -143.4 ± 34.2 beats/min. The “Maximum value of change, systolic pressure” value [1, 6] was -101.3 ± 5.2 mmHg.
In the case of `CC(=O)c1cc2cccc(OCC(O)CN3CCN(c4ccccc4C)CC3)c2o1` (stereo not shown) [Ex. 6 (HCl salt), 2-acetyl-7-{2-hydroxy-3-[4-(2-methylphenyl)-piperazinyl]propoxy}benzofuran], the Kb [2, 8] was 44.7 nM, the Kb [3] was 468 nM and the LD50 at 168 h [4] was greater than 1500 mg/kg.
In the case of `CC(=O)c1cc2cccc(OCC(O)CN3CCN(c4ccccc4C)CC3)c2o1` (stereo not shown) [Ex. 6, 2-acetyl-7-{2-hydroxy-3-[4-(2-methylphenyl)-piperazinyl]propoxy}benzofuran], the “Maximum value of change, heart rate” value [1, 5] was -70.0 ± 20.3 beats/min, the “Maximum value of change, systolic pressure” value [1, 5] was -71.7 ± 4.9 mmHg and the “Maximum value of change, heart rate” value [1, 6] was -135.8 ± 17.0 beats/min. For the same compound, the “Maximum value of change, systolic pressure” value [1, 6] was -90.3 ± 9.2 mmHg.
With `CC(=O)c1cc2cc(OCC(O)CN3CCN(c4ccccc4C)CC3)ccc2o1` (stereo not shown) [Ex. 7 (HCl salt)] the Kb [2, 8] was 219 nM, the Kb [3] was 631 nM and the LD50 at 168 h [4] was greater than 2000 mg/kg.
With `CC(=O)c1cc2cc(OCC(O)CN3CCN(c4ccccc4C)CC3)ccc2o1` (stereo not shown) [Ex. 7] the “Maximum value of change, heart rate” value [1, 5] was -45.0 ± 17.2 beats/min, the “Maximum value of change, systolic pressure” value [1, 5] was -86.4 ± 8.6 mmHg and the “Maximum value of change, heart rate” value [1, 6] was -51.3 ± 20.2 beats/min. For the same compound, the “Maximum value of change, systolic pressure” value [1, 6] was -117.5 ± 12.6 mmHg.
`CCOC(=O)c1cc2cccc(OCC(O)CN3CCN(c4ccccc4OC)CC3)c2o1` (stereo not shown) [Ex. 18 (HCl salt), 2-ethoxycarbonyl-7-{2-hydroxy-3-[4-(2-methoxyphenyl)-piperazinyl]propoxy}benzofuran] gave a Kb [2, 8] of 74.1 nM, a Kb [3] of 209 nM and an LD50 at 168 h [4] greater than 1000 mg/kg.
With `CCOC(=O)c1cc2cccc(OCC(O)CN3CCN(c4ccccc4OC)CC3)c2o1` (stereo not shown) [Ex. 18, 2-ethoxycarbonyl-7-{2-hydroxy-3-[4-(2-methoxyphenyl)-piperazinyl]propoxy}benzofuran] the “Maximum value of change, heart rate” value [1, 5] was -96.7 ± 35.1 beats/min, the “Maximum value of change, systolic pressure” value [1, 5] was -35.8 ± 4.6 mmHg and the “Maximum value of change, heart rate” value [1, 6] was -138.3 ± 25.4 beats/min. The “Maximum value of change, systolic pressure” value [1, 6] was -65.1 ± 5.5 mmHg.
For `CCOC(=O)c1cc2cc(OCC(O)CN3CCN(c4ccccc4OC)CC3)ccc2o1` (stereo not shown) [Ex. 19 (HCl salt), 2-ethoxycarbonyl-5-{2-hydroxy-3-[4-(2-methoxyphenyl)piperrazinyl]propoxy}benzofuran], the “α-Adrenergic blockade effect, pA2 value” [2, 9] was 6.72 ± 0.03, the “Calcium antagonistic effect, pA2 value” [3] was 5.28 ± 0.14 and the LD50 at 168 h [4] was greater than 1500 mg/kg.
In the case of `CCOC(=O)c1cc2cc(OCC(O)CN3CCN(c4ccccc4OC)CC3)ccc2o1` (stereo not shown) [Ex. 19, 2-ethoxycarbonyl-5-{2-hydroxy-3-[4-(2-methoxyphenyl)piperrazinyl]propoxy}benzofuran], the “Maximum value of change, heart rate” value [1, 5] was -68.4 ± 45.1 beats/min, the “Maximum value of change, systolic pressure” value [1, 5] was -37.6 ± 9.0 mmHg and the “Maximum value of change, heart rate” value [1, 6] was -73.4 ± 19.6 beats/min. For the same compound, the “Maximum value of change, systolic pressure” value [1, 6] was -60.1 ± 10.8 mmHg.
In the case of `CCOC(=O)c1cc2cc(OCC(O)CN3CCN(c4ccccc4C)CC3)ccc2o1` (stereo not shown) [Ex. 20 (HCl salt), 2-ethoxycarbonyl-5-{2-hydroxy-3-[4-(2-methylphenyl)-piperazinyl]propoxy}benzofuran], the “α-Adrenergic blockade effect, pA2 value” [2, 9] was 6.46 ± 0.09, the “Calcium antagonistic effect, pA2 value” [3] was 4.88 ± 0.70 and the LD50 at 168 h [4] was greater than 1500 mg/kg.
For `CCOC(=O)c1cc2cc(OCC(O)CN3CCN(c4ccccc4C)CC3)ccc2o1` (stereo not shown) [Ex. 20, 2-ethoxycarbonyl-5-{2-hydroxy-3-[4-(2-methylphenyl)-piperazinyl]propoxy}benzofuran], the “Maximum value of change, heart rate” value [1, 5] was -81.1 ± 22.2 beats/min, the “Maximum value of change, systolic pressure” value [1, 5] was -57.5 ± 12.5 mmHg and the “Maximum value of change, heart rate” value [1, 6] was -87.5 ± 17.7 beats/min. For the same compound, the “Maximum value of change, systolic pressure” value [1, 6] was -80.7 ± 13.6 mmHg.
Work on `COc1ccccc1N1CCN(CC(O)COc2cccc3cc(C(=O)O)oc23)CC1` (stereo not shown) [Ex. 21 (HCl salt), 2-carboxy-7-{2-hydroxy-3-[4-(2-methoxyphenyl)piperazinyl]propoxy}benzofuran] yielded a Kb [2, 8] of 355 nM, a Kb [3] of 3310 nM and an LD50 at 168 h [4] greater than 1000 mg/kg.
For `COc1ccccc1N1CCN(CC(O)COc2cccc3cc(C(=O)O)oc23)CC1` (stereo not shown) [Ex. 21, 2-carboxy-7-{2-hydroxy-3-[4-(2-methoxyphenyl)piperazinyl]propoxy}benzofuran], the “Maximum value of change, heart rate” value [1, 5] was -5.8 ± 8.7 beats/min, the “Maximum value of change, systolic pressure” value [1, 5] was -46.9 ± 6.3 mmHg and the “Maximum value of change, heart rate” value [1, 6] was -25.7 ± 16.4 beats/min. The “Maximum value of change, systolic pressure” value [1, 6] was -73.8 ± 9.9 mmHg.
In the case of `CC(CCc1ccccc1)NCC(O)c1ccc(O)c(C(N)=O)c1` (stereo not shown) [Labetalol, reference compound], the Kb [2] was 1510 nM, the “Maximum value of change, heart rate” value [1, 5] was -122.5 ± 37.5 beats/min and the “Maximum value of change, systolic pressure” value [1, 5] was -32.9 ± 12.9 mmHg. For the same compound, the “Maximum value of change, heart rate” value [1, 6] was -125.2 ± 25.6 beats/min, the “Maximum value of change, systolic pressure” value [1, 6] was -55.0 ± 9.1 mmHg and the “Maximum value of change, heart rate” value [1, 7] was -125.2 ± 25.6 beats/min. The “Maximum value of change, systolic pressure” value [1, 7] was -55.0 ± 9.1 mmHg.
